Assay results: patent US20060063753A1 (priority 2002, published 2006)

Legend:
serotonin-uptake = settings: order of potency (+)-nefopam > (±)-nefopam > (−)-nefopam; cited from earlier work
norepinephrine uptake = settings: order of potency (+)-nefopam > (±)-nefopam > (−)-nefopam; cited from earlier work
dopamine uptake = settings: order of potency (+)-nefopam > (±)-nefopam > (−)-nefopam; cited from earlier work
[1] = order of potency (+)-nefopam > (±)-nefopam > (−)-nefopam; cited from earlier work
[2] = system: emesis (retching and vomiting); experiment: emesis caused by opioid (morphine) and other proemetic agents (cisplatin) in ferrets; format: in vivo; settings: i.p. pre-dosing, morphine 0.125 mg/kg s.c. or cisplatin 5 mg/kg i.p.
Protocol: Male ferrets (0.9- 1.7 kg) obtained from Leeds University were housed in pairs at 22±1° C. and had free access to food (SDS Diet ‘C’ (E), Special Diet Services, UK) and water. They were housed under artificial lighting with lights on between 07:00 and 21:00 hours. For experimental use, animals were removed from their holding cages and placed individually into observation cages. The animals were allowed free access to water and food. The animals were divided into separate groups of 4 animals per group. Animals were frequently observed throughout the experiments by a trained technician to ensure that the animals remained in good health. In addition, animal behaviour was video recorded for subsequent analysis of emesis (see Rudd et al., 1994). Emesis was characterized by rhythmic abdominal contractions which were either associated with the oral expulsion of solid or liquid material from the gastrointestinal tract (i.e. vomiting) or not associated with the passage of material (i.e. retching movements). The number of highly distinctive abdominal contractions was counted. (+)-Nefopam was dissolved in saline and administered in a volume of 1 ml/kg. […] Observations were recorded over a 4 hr period post-morphine dosing and scored for incidences of retching and vomiting. […] Observations were recorded over the 72 hr period post-cisplatin dosing and scored for incidences of retching and vomiting.

opiate receptors = settings: cited from earlier work

| SMILES | serotonin-uptake inhibitory properties, potency compared with (−)-nefopam (serotonin-uptake) | norepinephrine uptake inhibitory properties, potency compared with (−)-nefopam (norepinephrine uptake) | dopamine uptake inhibitory properties, potency compared with (−)-nefopam (dopamine uptake) | analgesic properties, potency compared with (−)-nefopam [1] | effect on emesis caused by opioid and other recognised proemetic agents [2] | antinociception in animal models of pain and in humans (opiate receptors; animal models of pain and humans) | blockade of antinociception by nalaxone (opiate receptors; nalaxone) |
| --- | --- | --- | --- | --- | --- | --- | --- |
| CN1CCO[C@@H](c2ccccc2)c2ccccc2C1 [(+)-nefopam] | more potent | more potent | more potent | more potent |  |  |  |
| CN1CCOC(c2ccccc2)c2ccccc2C1 (racemic) [nefopam] |  |  |  |  | able to prevent or diminish emesis | induce antinociception | not blocked |
